Measured values published in patent publication US8921397B2, “Benzofurane-piperidine compounds” (Hoffmann-La Roche Inc., priority 2011, dated 2014).

Assays:
[1] = target: human D3 receptor (Homo sapiens (Human), UniProt P35462); assay: Radioligand binding ([3H]-spiperone) to human D3 receptor, HEK293 EBNA membranes; conditions: HEK293 EBNA cells expressing human D3 receptor
Method: (§1) HEK293 EBNA cells were transiently transfected with expression plasmids encoding for the human D2 or D3 or for the human 5-HT2A receptor, respectively. The cells were harvested 48 h post-transfection, washed three times with cold PBS and stored at −80° C. prior to use. The pellet was suspended in cold 50 mM Tris-HCl buffer containing 10 mM EDTA (pH 7.4) and was homogenized with a Polytron (Kinematica AG, Basel, Switzerland) for 20-30 sec at 12.000 rpm. After centrifugation at 48.000×g for 30 min at 4° C., the pellet was resuspended in cold 10 mM Tris-HCl buffer containing 0.1 mM EDTA (pH 7.4), homogenized, and centrifuged as above. This pellet was further resuspended in a smaller volume of ice cold 10 mM Tris-HCl buffer containing 0.1 mM EDTA (pH 7.4) and homogenized with a Polytron for 20-30 sec at 12.000 rpm. The protein content of this homogenate was determined with the Bio-Rad (Bradford) Protein Assay (Biorad Laboratories GmbH, München, Germany) according to the instructions of the manufacturer using gamma globulin as the standard. This homogenate was stored at −80° C. in aliquots and thawed immediately prior to use.
(§2) Aliquots of membrane preparations were thawed at RT, resuspended in assay buffer (D2, D3: 50 mM Tris-HCl, 120 mM NaCl, 5 mM MgCl2, 1 mM EDTA, 5 mM KCl, 1.5 mM CaCl2, pH=7.4; 5-HT2A: 50 mM Tris-HCl, 10 mM MgCl2, 1 mM EGTA, pH=7.4), homogenized with a Polytron for 20-30 sec at 12.000 rpm and adjusted to a final concentration of approximately 7.5 μg protein/well (D2, D3) and 15 μg protein/well (5-HT2A), respectively.
(§3) The binding affinity (Ki) of the compounds was determined using radioligand binding.
(§4) Membranes were incubated in a total volume of 200 μl with a fixed concentration of radioligand (final concentration approximately 0.7 nM [^3H]-spiperone for D2, 0.5 nM [^3 H]-spiperone for D3, and 1.1 nM [^3H]-ketanserin for 5-HT2A) and ten concentrations of test compound in ranging between 10 μM-0.1 nM for 1 h at RT. At the end of the incubation, the reaction mixtures were filtered on to unifilter 96-well white microplates with bonded GF/C filters (Packard BioScience, Zürich, Switzerland; preincubated for 1 h in 0.1% polyethylenimine (PEI) in assay buffer) with a Filtermate 196 harvester (Packard BioScience) and washed 3 times with cold assay buffer. The nonspecific binding was determined with equally composed reaction mixtures in the presence of 10 μM unlabelled spiperone. Per well 45 μl of Microscint 40 (Perkin Elmer, Schwerzenbach, Switzerland) was added, plates for sealed, shaken for 20 min and counted for 3 min on a Topcount Microplate Scintillation Counter (Canberra Packard SA, Zürich, Switzerland) with quenching correction.
(§5) The CPM value for each duplicate of a concentration of competing compound was averaged (y1), then the % specific binding was calculated according to the equation (((y1−non-specific)/(total binding−non-specific))×100). Graphs were plotted with the % specific binding using XLfit, a curve-fitting program that iteratively plots the data using Levenberg-Marquardt algorithm. The single site competition analysis equation used was y=A+((B−A)/(1+((x/C)D))), where y is the % specific binding, A is the minimum y, B is the maximum y, C is the IC50, x is the log 10 of the concentration of the competing compound and D is the slope of the curve (the Hill Coefficient). From these curves the IC50 (inhibition concentration at which 50% specific binding of the radioligand was displaced) and Hill coefficient were determined. The affinity constant (Ki) was calculated using the Cheng-Prusoff equation Ki=(IC50/1+([L]/Kd), where [L] is the concentration of radioligand and Kd is the dissociation constant of the radioligand at the receptor as determined by the saturation isotherm.

[2] = target: human 5-HT2A receptor (Homo sapiens (Human), UniProt P28223); assay: Radioligand binding ([3H]-ketanserin) to human 5-HT2A receptor, HEK293 EBNA membranes; conditions: HEK293 EBNA cells expressing human 5-HT2A receptor
human 5-HT2A receptor, sequence (P28223 whole entry): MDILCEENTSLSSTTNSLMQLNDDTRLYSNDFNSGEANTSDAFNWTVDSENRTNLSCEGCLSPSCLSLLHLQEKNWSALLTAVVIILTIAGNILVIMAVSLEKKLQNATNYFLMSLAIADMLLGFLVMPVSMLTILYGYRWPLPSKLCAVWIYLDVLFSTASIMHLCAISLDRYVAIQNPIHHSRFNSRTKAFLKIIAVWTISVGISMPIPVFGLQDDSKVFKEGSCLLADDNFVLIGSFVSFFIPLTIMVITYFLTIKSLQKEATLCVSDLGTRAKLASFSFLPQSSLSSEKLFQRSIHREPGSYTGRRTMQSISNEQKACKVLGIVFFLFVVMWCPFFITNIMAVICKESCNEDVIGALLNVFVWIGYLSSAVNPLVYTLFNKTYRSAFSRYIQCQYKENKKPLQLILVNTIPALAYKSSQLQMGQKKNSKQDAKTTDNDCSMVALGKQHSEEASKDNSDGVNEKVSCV
Method: The ability of the compounds to bind to the 5-HT2A, D3 and D2 receptors was determined using radioligand binding to cloned receptors selectively expressed in HEK-293 EBNA cells.
as §1, §2, §3, §4, §5

[3] = target: human D2 receptor (Homo sapiens (Human), UniProt P14416); assay: Radioligand binding ([3H]-spiperone) to human D2 receptor, HEK293 EBNA membranes; conditions: HEK293 EBNA cells expressing human D2 receptor
human D2 receptor, sequence (P14416 whole entry): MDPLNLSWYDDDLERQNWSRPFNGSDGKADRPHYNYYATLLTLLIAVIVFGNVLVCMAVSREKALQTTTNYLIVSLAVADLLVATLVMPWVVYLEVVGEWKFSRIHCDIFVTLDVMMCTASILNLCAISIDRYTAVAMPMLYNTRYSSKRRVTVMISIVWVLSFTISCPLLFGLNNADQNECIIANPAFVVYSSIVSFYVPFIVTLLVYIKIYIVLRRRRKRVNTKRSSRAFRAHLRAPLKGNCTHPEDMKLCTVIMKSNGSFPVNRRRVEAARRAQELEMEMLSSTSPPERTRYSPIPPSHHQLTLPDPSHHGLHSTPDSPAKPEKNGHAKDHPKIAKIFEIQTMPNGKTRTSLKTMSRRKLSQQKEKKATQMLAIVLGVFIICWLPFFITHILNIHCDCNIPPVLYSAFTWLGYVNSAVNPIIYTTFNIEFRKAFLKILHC
Method: as §1, §2, §3, §4, §5

human D3 receptor, sequence (P35462 whole entry): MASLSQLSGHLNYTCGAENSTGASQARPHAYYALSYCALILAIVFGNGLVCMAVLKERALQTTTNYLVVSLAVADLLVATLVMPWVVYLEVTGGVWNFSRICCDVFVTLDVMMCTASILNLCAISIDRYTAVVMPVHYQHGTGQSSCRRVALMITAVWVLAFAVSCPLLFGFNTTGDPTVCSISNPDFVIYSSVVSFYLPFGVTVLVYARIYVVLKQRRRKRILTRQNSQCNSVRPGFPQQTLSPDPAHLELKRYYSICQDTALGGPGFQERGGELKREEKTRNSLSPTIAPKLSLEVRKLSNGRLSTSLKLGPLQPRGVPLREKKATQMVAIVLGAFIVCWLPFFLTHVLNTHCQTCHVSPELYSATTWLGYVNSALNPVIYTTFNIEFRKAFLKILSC

SMILES | Ki [1] | Ki [2] | melting point | Ki [3]
O=C(CC1COCCO1)N[C@H]1CC[C@H](CCN2CCC(c3coc4ccccc34)CC2)CC1 (mixture of isomers) [Example 8, trans-N-{4-[2-(4-Benzofuran-3-yl-piperidin-1-yl)-ethyl]-cyclohexyl}-(RS)-2-[1,4]dioxan-2-yl-acetamide] | 2.02 nM | 2.04 nM | 172 °C | 
O=C(N[C@H]1CC[C@H](CCN2CCC(c3coc4ccccc34)CC2)CC1)C1CCOC1 (mixture of isomers) [Example 17, (RS)-Tetrahydro-furan-3-carboxylic acid trans-{4-[2-(4-benzofuran-3-yl-piperidin-1-yl)-ethyl]-cyclohexyl}-amide] |  | 5.93 nM | 183 °C | 53 nM
O=C(N[C@H]1CC[C@H](CCN2CCC(c3coc4ccccc34)CC2)CC1)C1CCCO1 (mixture of isomers) [Example 18, (RS)-Tetrahydro-furan-2-carboxylic acid trans-{4-[2-(4-benzofuran-3-yl-piperidin-1-yl)-ethyl]-cyclohexyl}-amide] | 9.2 nM | 2.88 nM | 132 °C | 81.5 nM
CCC(C)C(=O)N[C@H]1CC[C@H](CCN2CCC(c3coc4ccccc34)CC2)CC1 (mixture of isomers) [Example 31, trans-N-{4-[2-(4-Benzofuran-3-yl-piperidin-1-yl)-ethyl]-cyclohexyl}-(RS)-2-methyl-butyramide] | 4.83 nM | 6.56 nM | 172 °C | 46 nM
O=C(N[C@H]1CC[C@H](CCN2CCC(c3coc4ccccc34)CC2)CC1)C(O)C(F)(F)F (mixture of isomers) [Example 32, trans-N-{4-[2-(4-Benzofuran-3-yl-piperidin-1-yl)-ethyl]-cyclohexyl}-(RS)-3,3,3-trifluoro-2-hydroxy-propionamide] | 4.02 nM | 6.08 nM | 206 °C | 46.4 nM
CC(=O)N[C@H]1CC[C@H](CCN2CCC(c3coc4ccccc34)CC2)CC1 [Example 1, trans-N-{4-[2-(4-Benzofuran-3-yl-piperidin-1-yl)-ethyl]-cyclohexyl}-acetamide] | 1.08 nM | 5.08 nM | 162 °C | 50.4 nM
COCCC(=O)N[C@H]1CC[C@H](CCN2CCC(c3coc4ccccc34)CC2)CC1 [Example 2, trans-N-{4-[2-(4-Benzofuran-3-yl-piperidin-1-yl)-ethyl]-cyclohexyl}-3-methoxy-propionamide] | 1.22 nM | 4.63 nM | 136 °C | 71.2 nM
O=C(N[C@H]1CC[C@H](CCN2CCC(c3coc4ccccc34)CC2)CC1)C1CCOCC1 [Example 3, Tetrahydro-pyran-4-carboxylic acid trans-{4-[2-(4-benzofuran-3-yl-piperidin-1-yl)-ethyl]-cyclohexyl}-amide] | 4.53 nM | 2.44 nM | 175 °C | 37.3 nM
O=C(CC1CCOCC1)N[C@H]1CC[C@H](CCN2CCC(c3coc4ccccc34)CC2)CC1 [Example 4, trans-N-{4-[2-(4-Benzofuran-3-yl-piperidin-1-yl)-ethyl]-cyclohexyl}-2-(tetrahydro-pyran-4-yl)-acetamide] | 3.14 nM | 5.37 nM | 175 °C | 77.6 nM
CCC(=O)N[C@H]1CC[C@H](CCN2CCC(c3coc4ccccc34)CC2)CC1 [Example 5, trans-N-{4-[2-(4-Benzofuran-3-yl-piperidin-1-yl)-ethyl]-cyclohexyl}-propionamide] | 1.23 nM | 4.52 nM | 162 °C | 48.1 nM
COCC(=O)N[C@H]1CC[C@H](CCN2CCC(c3coc4ccccc34)CC2)CC1 [Example 6, trans-N-{4-[2-(4-Benzofuran-3-yl-piperidin-1-yl)-ethyl]-cyclohexyl}-2-methoxy-acetamide] | 3.52 nM | 3.36 nM | 115 °C | 80.1 nM
CS(=O)(=O)CC(=O)N[C@H]1CC[C@H](CCN2CCC(c3coc4ccccc34)CC2)CC1 [Example 7, trans-N-{4-[2-(4-Benzofuran-3-yl-piperidin-1-yl)-ethyl]-cyclohexyl}-2-methanesulfonyl-acetamide] | 1.45 nM | 3.54 nM | 187 °C | 50.8 nM
O=C(N[C@H]1CC[C@H](CCN2CCC(c3coc4ccccc34)CC2)CC1)c1ccccc1 [Example 9, trans-N-{4-[2-(4-Benzofuran-3-yl-piperidin-1-yl)-ethyl]-cyclohexyl}-benzamide] | 1.34 nM | 4.36 nM | 189 °C | 32.3 nM
Cc1cc(CC(=O)N[C@H]2CC[C@H](CCN3CCC(c4coc5ccccc45)CC3)CC2)on1 [Example 10, trans-N-{4-[2-(4-Benzofuran-3-yl-piperidin-1-yl)-ethyl]-cyclohexyl}-2-(3-methyl-isoxazol-5-yl)-acetamide] | 0.68 nM | 7.71 nM | 165 °C | 83.6 nM
O=C(CO)N[C@H]1CC[C@H](CCN2CCC(c3coc4ccccc34)CC2)CC1 [Example 11, trans-N-{4-[2-(4-Benzofuran-3-yl-piperidin-1-yl)-ethyl]-cyclohexyl}-2-hydroxy-acetamide] | 1.47 nM | 4.92 nM | 161 °C | 46.5 nM
O=C(CC(F)(F)F)N[C@H]1CC[C@H](CCN2CCC(c3coc4ccccc34)CC2)CC1 [Example 12, trans-N-{4-[2-(4-Benzofuran-3-yl-piperidin-1-yl)-ethyl]-cyclohexyl}-3,3,3-trifluoro-propionamide] | 0.99 nM | 8.06 nM | 182 °C | 42.7 nM
O=C(N[C@H]1CC[C@H](CCN2CCC(c3coc4ccccc34)CC2)CC1)c1ccc(N2CCOCC2)cc1 [Example 13, trans-N-{4-[2-(4-Benzofuran-3-yl-piperidin-1-yl)-ethyl]-cyclohexyl}-4-morpholin-4-yl-benzamide] | 7.4 nM | 11.1 nM | 249 °C | 406 nM
CC(C)C(=O)N[C@H]1CC[C@H](CCN2CCC(c3coc4ccccc34)CC2)CC1 [Example 14, trans-N-{4-[2-(4-Benzofuran-3-yl-piperidin-1-yl)-ethyl]-cyclohexyl}-isobutyramide] | 1.78 nM | 5.75 nM | 173 °C | 39.5 nM
CC(C)CC(=O)N[C@H]1CC[C@H](CCN2CCC(c3coc4ccccc34)CC2)CC1 [Example 15, trans-N-{4-[2-(4-Benzofuran-3-yl-piperidin-1-yl)-ethyl]-cyclohexyl}-3-methyl-butyramide] | 1.94 nM | 8.65 nM | 182 °C | 43.5 nM
CC(C)(O)C(=O)N[C@H]1CC[C@H](CCN2CCC(c3coc4ccccc34)CC2)CC1 [Example 16, trans-N-{4-[2-(4-Benzofuran-3-yl-piperidin-1-yl)-ethyl]-cyclohexyl}-2-hydroxy-2-methyl-propionamide] | 5.51 nM | 2.25 nM | 169 °C | 53.7 nM
